The source of these data is US4703055A, “Benzamides and therapeutic use thereof” (Societe d'Etudes Scientifiques et Industrielles de …, priority 1985, dated 1987).

The conditions of data set [1]: in vivo, sc.
In data set [2] the test system is stereotyped movements induced by apomorphine. Nature of the data set: Antagonism of stereotyped movements induced by apomorphine in rats (central antidopaminergic effect). Type of data set: in vivo. The method, then: Another pharmacological study was conducted to determine the central antidopaminergic effects of the compounds of the invention, by evaluating the power of their antagonistic effect in regard to the stereotyped movements induced by apomorphine in two different doses (1.25 mg/kg/IV and 0.5 mg/kg/SC) in rats. The tests were conducted according to conventional procedures.

Data set [3] in a line: in vivo. The conditions noted are these: mouse, male mice, intravenous, as base, read-out: LD50 in mg/kg (base) intravenously. The method, then: The compounds according to the invention were the subject of a toxicological study to determine the lethal doses (LD50) in male mice, the compounds being administered intravenously. Metoclopramide was employed as a standard. The compounds of […] were tested.
Table (I) sets out the values with respect to said (LD50) tests.

The nature of another data set: Solubility of crystals. In kind it is physicochemical.
A short description of data set [4]: in vivo. The note with it: sc.
[5] abbreviates: Rattus norvegicus, ip, I.P., read-out: inhibitor effect on stereotypies in regard to apomorphine, Intraperitoneal (I.P).
Setting [6] is: I.P., at 64 mg/kg, result in words.
Setting [7] is: Rattus norvegicus, ip, I.P., at 64 mg/kg, read-out: inhibitor effect on stereotypies in regard to apomorphine, Intraperitoneal (I.P).

Counter-ions that a name gives are not always drawn. Like-named read-outs stand apart in the source and are kept apart here.

`CCN1CCN=C1CNC(=O)c1cc(Br)c(N)cc1OC` [Example 6, N-[(1-ETHYL 2-IMIDAZOLIN-2-YL)METHYL] 2-METHOXY 4-AMINO 5-BROMOBENZAMIDE]: the “Cataleptic Activity (Subcutaneous)” value in data set [1] (100 mg/kg) is “inactive”. In addition, in data set [2] (setting [5]), the inhibition in vivo at 32 mg/kg was determined as 20%. In addition, in data set [2] (S.C., at 200 mg/kg), the “Stereotypies in regard to apomorphine, Subcutaneous (S.C.)” value (from here on “Stereotypies in regard … (S.C.)”) was “inactive”.

Regarding `CCN1CCN=C1CN(C)C(=O)c1cc(Cl)c(N)cc1OC` [Example 7, N-METHYL N-[(1-ETHYL 2-IMIDAZOLIN-2-YL)METHYL] 2-METHOXY 4-AMINO 5-CHLOROBENZAMIDE METHANE SULPHONATE], the “Cataleptic Activity (Subcutaneous)” value in data set [1] (200 mg/kg) was “inactive”. In addition, the “Stereotypies in regard to apomorphine, Intraperitoneal (I.P)” value (from here on “Stereotypies in regard … (I.P)”) in data set [2] (setting [6]) was “inactive”. For the same molecule, the “Stereotypies in regard … (S.C.)” value in data set [2] (S.C., at 200 mg/kg) was “inactive”. Besides, the LD50 in the data set “in vivo [3]” lay within 23.4 to 24.4 mg/kg.

For `C=CCN1CCN=C1CNC(=O)c1cc(Cl)c(N)cc1OC` [Example 2, N-[(1-ALLYL 2-IMIDAZOLIN-2-YL)METHYL] 2-METHOXY 4-AMINO 5-CHLOROBENZAMIDE], in data set [1] (200 mg/kg), the “Cataleptic Activity (Subcutaneous)” value is “inactive”. Further, in the data set “in vivo [3]”, the LD50 is 31.8 mg/kg.

Take `COc1cc(N)c(Cl)cc1C(=O)NCC1=NCCN1CC1=CCCCC1` [Example 13, N-[1-CYCLOHEXEN-1-YL-METHYL)2-(IMIDAZOLIN-2-YL)METHYL]2-METHOXY 4-AMINO 5-CHLOROBENZAMIDE]: in data set [1] (200 mg/kg), the “Cataleptic Activity (Subcutaneous)” value was “inactive”. In addition, in data set [2] (setting [7]), the inhibition in vivo at 64 mg/kg was found to be 18%. Also, the “Stereotypies in regard … (S.C.)” value in data set [2] (S.C., at 200 mg/kg) was “inactive”. Further, the LD50 in “in vivo [3]” amounted to 61.6 mg/kg.

As to `CCN1CCN=C1CNC(=O)c1cc(Cl)c(N)cc1OC` [Example 1, N-[(1-ETHYL 2-IMIDAZOLIN-2-YL)METHYL] 2-METHOXY 4-AMINO 5-CHLOROBENZAMIDE], the “Cataleptic Activity (Subcutaneous)” value in data set [1] (200 mg/kg) was “inactive”. Also, the “Stereotypies in regard … (I.P)” value in data set [2] (I.P., at 50 mg/kg) was “inactive”. Also, the “Stereotypies in regard … (S.C.)” value in data set [2] (S.C., at 200 mg/kg) is “inactive”. For the same molecule, the solubility in chloroform entry in the data set “Solubility of crystals” (chloroform) is on record as “highly soluble”. The “solubility in dilute acetic acid” value in the data set “Solubility of crystals” (dilute acetic acid) is “soluble”. Besides, in “in vivo [3]”, the LD50 was in the range of 27.1 to 27.2 mg/kg.

`CCN1CC(C)(C)N=C1CNC(=O)c1cc(Cl)c(N)cc1OC` [Example 11, N-[(1-ETHYL 4-DIMETHYL 2-IMIDAZOLIN-2-YL)METHYL]2-METHOXY 4-AMINO 5-CHLOROBENZAMIDE]: the “Cataleptic Activity (Subcutaneous)” value in data set [1] (200 mg/kg) was “inactive”. The “Stereotypies in regard … (I.P)” value in data set [2] (setting [6]) is “inactive”. In addition, the “Stereotypies in regard … (S.C.)” value in data set [2] (S.C., at 200 mg/kg) is “inactive”. Further, the LD50 in “in vivo [3]” was 30.4 mg/kg.

Turning to `COc1cc(N)c(Cl)cc1C(=O)NCC1=NCCN1C` [Example 8, N-[(1-METHYL 2-IMIDAZOLIN-2-YL)METHYL]2-METHOXY 4-AMINO 5-CHLOROBENZAMIDE HYDROCHLORIDE], the “Cataleptic Activity (Subcutaneous)” value in data set [1] (200 mg/kg) is “inactive”. In addition, the inhibition in vivo at 64 mg/kg in data set [2] (setting [7]) was determined as 8%. Also, in data set [2] (S.C., at 200 mg/kg), the “Stereotypies in regard … (S.C.)” value is “inactive”.

As for `CCN(CC)CCNC(=O)c1cc(Cl)c(N)cc1OC` [METOCLOPRAMIDE, Metoclopramide, reference compound], the ED50 in data set [2] (Rattus norvegicus, ip, I.P., read-out: ID50, stereotypies in regard to apomorphine, Intraperitoneal (I.P)) lay in the range of 2 to 2.6 mg/kg; in data set [2] (Rattus norvegicus, sc, S.C., read-out: ID50, stereotypies in regard to apomorphine, Subcutaneous (S.C.)), 15 to 15.2 mg/kg. Also, in data set [2] (same conditions), the “antagonism of apomorphine stereotypies (in words)” value is “marked stereotypy inhibitor capacity”. Moreover, in the data set “in vivo [4]”, the TD50 was in the range of 30 to 38 mg/kg. In the data set “in vivo [3]”, the LD50 worked out at 37.9 mg/kg.

As to `CCN1CC(C)N=C1CNC(=O)c1cc(Cl)c(N)cc1OC` (stereo not drawn) [Example 9, N-[(1-ETHYL 4-METHYL 2-IMIDAZOLIN-2-YL)METHYL] 2-METHOXY 4-AMINO 5-CHLOROBENZAMIDE], the “Cataleptic Activity (Subcutaneous)” value in data set [1] (200 mg/kg) is “inactive”. The inhibition in vivo at 64 mg/kg in data set [2] (setting [7]) was found to be 5%. In addition, the “Stereotypies in regard … (S.C.)” value in data set [2] (S.C., at 100 mg/kg) is “inactive”.

As to `COc1cc(N)c(Cl)cc1C(=O)NCC1=NCCN1CC1CC1` [Example 4, N-[(1-CYCLOPROPYLMETHYL 2-IMIDAZOLIN-2-YL)METHYL] 2-METHOXY 4-AMINO 5-CHLOROBENZAMIDE], the “Cataleptic Activity (Subcutaneous)” value in data set [1] (200 mg/kg) is “inactive”. In addition, in data set [2] (setting [5]), the inhibition in vivo at 32 mg/kg came to 26%. For the same molecule, the “Stereotypies in regard … (S.C.)” value in data set [2] (S.C., at 100 mg/kg) was “inactive”.

As for `CCN1CCN=C1C(C)NC(=O)c1cc(Cl)c(N)cc1OC` (stereo not drawn) [Example 14, N-[1-(ethyl 2-imidazolin-2-yl)ethyl]2-methoxy 4-amino 5-chlorobenzamide], in data set [1] (80 mg/kg), the “Cataleptic Activity (Subcutaneous)” value was “inactive”. Also, in data set [2] (I.P., at 40 mg/kg), the “Stereotypies in regard … (I.P)” value is “inactive”. Besides, the “Stereotypies in regard … (S.C.)” value in data set [2] (S.C., at 80 mg/kg) was “inactive”. Besides, in the data set “in vivo [3]”, the LD50 is 14.6 mg/kg.

Turning to `COc1cc(N)c(Cl)cc1C(=O)NCC1=NCCN1` [Example 10, N-[(2-IMIDAZOLIN-2-YL)METHYL] 2-METHOXY 4-AMINO 5-CHLOROBENZAMIDE NITRATE], the “Cataleptic Activity (Subcutaneous)” value in data set [1] (200 mg/kg) was “inactive”. Further, the inhibition in vivo at 64 mg/kg in data set [2] (setting [7]) is 4%. The “Stereotypies in regard … (S.C.)” value in data set [2] (S.C., at 100 mg/kg) was “inactive”. In the data set “in vivo [3]”, the LD50 fell in the range of 38.4 to 41.9 mg/kg.

On to `COc1cc(N)c(Cl)cc1C(=O)NCC1=NCCN1Cc1ccccc1` [Example 3, N-[(1-benzyl 2-imidazolin-2-yl)methyl] 2-methoxy 4-amino 5-chlorobenzamide Hydrochloride], for which the “Cataleptic Activity (Subcutaneous)” value in data set [1] (200 mg/kg) was “inactive”. In addition, the inhibition in vivo at 64 mg/kg in data set [2] (setting [7]) was determined as 19%. The “Stereotypies in regard … (S.C.)” value in data set [2] (S.C., at 200 mg/kg) is “inactive”. For the same molecule, in “in vivo [3]”, the LD50 lay in the range of 47.8 to 48.5 mg/kg.

For the molecule `CCN1CCN=C1CNC(=O)c1cc(Cl)c(N)cc1O` [Example 12, N-[(1-ETHYL 2-IMIDAZOLIN-2-YL)METHYL]2-HYDROXY 4-AMINO 5-CHLOROBENZAMIDE HYDROCHLORIDE], the “Cataleptic Activity (Subcutaneous)” value in data set [1] (200 mg/kg) is “inactive”. The inhibition in vivo at 54 mg/kg in data set [2] (Rattus norvegicus, ip, I.P., at 54 mg/kg, read-out: inhibitor effect on stereotypies in regard to apomorphine, Intraperitoneal (I.P)) is 2%. Also, the “Stereotypies in regard … (S.C.)” value in data set [2] (S.C., at 200 mg/kg) is “inactive”. Also, the LD50 in the data set “in vivo [3]” came out at 59.3 mg/kg.

With `C=CCOc1cc(N)c(Cl)cc1C(=O)NCC1=NCCN1CC` [Example 5, N-[(1-ETHYL 2-IMIDAZOLIN-2-YL)METHYL] 2-ALLYLOXY 4-AMINO 5-CHLOROBENZAMIDE], in data set [1] (200 mg/kg), the “Cataleptic Activity (Subcutaneous)” value is “inactive”. Also, in data set [2] (setting [5]), the inhibition in vivo at 32 mg/kg was found to be 8%. Further, in data set [2] (S.C., at 200 mg/kg), the “Stereotypies in regard … (S.C.)” value was “inactive”. For the same molecule, the LD50 in the data set “in vivo [3]” was 25.5 to 26.1 mg/kg.
